PMC12458683, “Water-Based Pharmacophore Modeling in Kinase Inhibitor Design: A Case Study on Fyn and Lyn Protein Kinases” (Journal of Chemical Information and Modeling, 2025)
pIC50: −log10 of the molar value.

Legend:
Fyn (h) = target: T1, Fyn (h) (Homo sapiens, UniProt P06241); test: radiometric kinase assay ([gamma-33P]-ATP, filter binding), 9-point dilution; format: biochemical
T1 construct: Eurofins KinaseProfiler enzyme
Description: radiometric kinase assay ([gamma-33P]-ATP, filter binding), 9-point dilution on Fyn (h)

Lyn (h) = target: T2, Lyn (h) (Homo sapiens, UniProt P07948); test: as above; format: biochemical
T2 construct: Eurofins KinaseProfiler enzyme
T2 sequence (P07948 2-512): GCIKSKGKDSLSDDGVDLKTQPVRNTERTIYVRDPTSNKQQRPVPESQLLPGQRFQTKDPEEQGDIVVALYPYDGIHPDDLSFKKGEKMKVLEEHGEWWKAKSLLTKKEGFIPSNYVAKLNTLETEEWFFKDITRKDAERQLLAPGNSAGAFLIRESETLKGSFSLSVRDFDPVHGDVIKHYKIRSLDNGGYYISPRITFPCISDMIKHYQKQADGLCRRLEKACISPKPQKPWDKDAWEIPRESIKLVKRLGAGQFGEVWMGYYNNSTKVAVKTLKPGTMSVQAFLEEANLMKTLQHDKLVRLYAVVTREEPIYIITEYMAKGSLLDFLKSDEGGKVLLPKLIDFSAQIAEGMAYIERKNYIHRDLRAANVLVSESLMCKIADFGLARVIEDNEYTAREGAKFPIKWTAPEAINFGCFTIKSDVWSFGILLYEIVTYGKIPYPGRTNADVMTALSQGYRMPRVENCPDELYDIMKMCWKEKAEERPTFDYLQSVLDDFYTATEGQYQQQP
Description: radiometric kinase assay ([gamma-33P]-ATP, filter binding), 9-point dilution on Lyn (h)

T1 sequence (P06241 2-537): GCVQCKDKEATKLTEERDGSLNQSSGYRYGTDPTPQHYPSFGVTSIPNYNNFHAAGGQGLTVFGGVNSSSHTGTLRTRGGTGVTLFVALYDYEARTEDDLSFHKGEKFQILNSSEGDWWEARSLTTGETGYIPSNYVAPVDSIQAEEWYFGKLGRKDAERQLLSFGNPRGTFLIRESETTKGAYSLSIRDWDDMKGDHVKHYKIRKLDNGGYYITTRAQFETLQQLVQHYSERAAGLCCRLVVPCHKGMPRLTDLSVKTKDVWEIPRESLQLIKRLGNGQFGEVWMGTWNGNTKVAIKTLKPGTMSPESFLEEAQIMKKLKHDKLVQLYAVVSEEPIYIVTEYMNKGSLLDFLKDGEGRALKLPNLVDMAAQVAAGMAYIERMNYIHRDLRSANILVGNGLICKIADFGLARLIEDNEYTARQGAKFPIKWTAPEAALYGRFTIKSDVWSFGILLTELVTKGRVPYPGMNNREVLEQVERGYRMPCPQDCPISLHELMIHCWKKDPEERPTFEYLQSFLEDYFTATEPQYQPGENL

- pIC50 (Fyn (h)): 5.06
- pIC50 (Lyn (h)): 5.36
SMILES: COc1cc(O)c2c(=O)c(-c3ccc(O[C@@H]4O[C@H](CO)[C@@H](O)[C@H](O)[C@H]4O)cc3)coc2c1 [compound 1]
